Series [1] can be described thus: Cholesterol measurement in muscle during statin treatment. The series is classed as in vivo, mice. Conditions: after 3 days of statin treatment, 44 mg/kg daily oral gavage.
Experimental: 800 μl of each sucrose gradient fraction were subjected to the Bligh-Dyer method for the extraction of lipids in solution. Briefly, 3.75 ml 1:2 (v/v) CHC13: MeOH were added to each sample, followed by 1.25 ml of CHCl3, and 1.25 ml of distilled water; after each addition, samples were vigorously vortexed. The organic phase of each sample was carefully extracted and dried under N2(g). Cholesterol was separated from other lipids on rhodamine 6G stained silica gel G plates with petroleum ether/diethyl ether (98:2, v/v) as the solvent system. The spots corresponding to cholesterol was extracted with petroleum ether:ethyl ether (2:3 v/v) and further assayed using the Wako cholesterol E Kit (Wako Chemicals USA, VA) according to the manufacturer's indications.
The subject of a further series is αC418W and WT mice. The series is described as follows: GBHA stain for end-plate (NMJ) calcium overload, tibialis anterior muscle. From the text: (§1) Serial cryosections of tibialis anterior muscle from statin-treated αC418W and WT mice were stained for calcium deposits (via GBHA) and also for cholinesterase to localize end-plates. Looking at these in adjacent sections, we were able to measure the percent of calcium-positive NMJs as previously described.

Another series relates to caspase-3. Conditions: mouse, in vivo. The protocol:
A firefly luciferase-based assay was used to measure activity of caspase 3 (Caspase-Glo® 3/7, Promega). Muscles were homogenized (25 mM HEPES pH 7.5, 0.1% (v/v) Triton X-100, 5 mM MgCl2, 2 mM 1,4-dithiothreitol, 10 mM NH4Cl, 10 mM 3-methyladenine, 74 μM antipain, 0.15 μM aprotinin, 1.3 mM EDTA, 20 μM leupeptin, and 15 μM pepstatin). After homogenization, a 20 μg protein product was added to the luminometer in triplicates for the protease luminescence assay.
as §1

Take `CC(C)c1c(C(=O)Nc2ccccc2)c(-c2ccccc2)c(-c2ccc(F)cc2)n1CC[C@@H](O)C[C@@H](O)CC(=O)O` [atorvastatin, Atorvastatin calcium]: the total cholesterol levels result in series [1] is reported as “significantly lowered”. Moreover, the NMJ calcium overload entry with αC418W and WT mice (WT mice, statin treatment) was “did not cause NMJ calcium overload”. For the same compound, in the series on αC418W and WT mice (αC418W mice, at 36 days of statin treatment), the “NMJ calcium overload (GBHA-positive end-plates), increase over control levels” value is roughly 3 fold. Moreover, in the series on caspase-3, the caspase-3 activity entry was “did not show an increase” and the “caspase-3 activity compared with placebo-treated control group” value is given as “remained unchanged”.

The record behind these values is US20140005281A1, “Method of Predicting Increased Risk of Suffering Statin-induced Adverse Drug Reactions” (priority 2012, published 2014).
